Test results taken from the COVID Moonshot data (paper PMC11187573), “Identification of SARS-CoV-2 Mpro inhibitors through deep reinforcement learning for de novo drug design and computational chemistry approaches” (RSC Medicinal Chemistry, 2024).

Key:
[1] = target: SARS-CoV-2 Main Protease (SARS-CoV-2) (UniProt P0DTD1)
[2] = target: SARS-CoV-2 Main Protease (SARS-CoV-2) (UniProt P0DTD1); remark: listed apart in the source

Row | SMILES | relative solubility at 20 uM | relative solubility at 100 uM | inhibition ([1]; 20.0 µM) [%] | inhibition ([2]; 20.0 µM) [%] | inhibition ([2]; 50.0 µM) [%] | inhibition ([1]; 50.0 µM) [%] | IC50 [1] [µM]
1 | O=C(Nc1ccc(Oc2ncccn2)cc1)C(=O)N1CCN(Cc2cccs2)CC1 | 1 | 1 | 0 | -21 | -13.8 | – | –
2 | Cc1ccnn1CC(=O)NCC(NC(=O)C(C)C#N)c1ccccc1 (stereo unspecified) | 0.99 | 1 | – | -13.2 | -6.86 | -26.1 | –
3 | C=C(CN(C)C)C(=O)N1Cc2ccccc2C(c2ccccc2)C1 (stereo unspecified) | 1 | 0.97 | 0 | 0.735 | 10.3 | – | –
4 | CCNc1ncc(C#N)cc1CN1CCN(C(=O)CCl)CC1 | 0.98 | 0.95 | – | 99.7 | 102 | 99.7 | 1.64
5 | Cc1noc([C@@H](C)S(=O)(=O)Cc2cccc(C(F)(F)F)c2)n1 (stereo in doubt) | 1.01 | 1 | – | -7.05 | -6.94 | 0 | –
6 | C=CC(=O)N(c1ccc(SC)cc1)C(C(=O)Nc1ccc(OC)cc1C)c1cccnc1 (stereo unspecified) | 0.95 | 0.84 | 0 | 8.27 | 22.2 | – | –
7 | O=C(C1CCCN1C(=O)c1ccccc1)N1CCOCC1 (stereo unspecified) | 1 | 1 | 0 | – | -28 | 0 | –
8 | O=C(Cc1cccnc1Cl)Nc1cccc(OCCc2ccccc2)c1 | 0.81 | 0.27 | 0 | 1.54 | 6.9 | 5.03 | –
9 | N#Cc1ncccc1NC(=O)Cc1cccc(Cl)c1 | 0.99 | 1 | 0 | -10.2 | -15.7 | 0 | –
10 | CS(=O)(=O)Nc1cccc(C(=O)Oc2cccc(N3CCCC3=O)c2)c1 | 0.99 | 0.86 | 0 | – | 35.7 | 11.2 | –
11 | CC(=O)Nc1ccc(NCC(=O)Nc2cnccc2C)cc1 | 0.96 | 0.9 | – | -2.21 | -24.3 | 0 | –
12 | O=C(CCl)Nc1cccc(-c2ccc3c(c2)CCCC3)c1 | 0.9 | 0.87 | – | 10.8 | 15.2 | 47.7 | –
13 | C=CC(=O)N(c1ccc(C(C)(C)C)cc1)C(C(=O)Nc1ccc(F)cc1)c1cccnc1 (stereo unspecified) | 0.98 | 0.86 | 8.55 | 17 | 36 | 31.9 | –
14 | C=CC(=O)N(c1cc(C(C)(C)C)on1)C(C(=O)Nc1ccc(OC)cc1C)c1cccnc1 (stereo unspecified) | 1 | 0.91 | 14.3 | 12.9 | 23.4 | – | –
15 | C[C@H](NC(=O)[C@@H](C)c1ccc(F)c(F)c1)c1cccc(F)c1 (stereo in doubt) | 1 | 0.79 | 0 | – | -31.4 | 0 | –
16 | Cc1ncncc1NC(=O)Nc1ccccc1 | 0.99 | 0.99 | 6.04 | -2.06 | -0.628 | 20.1 | –
17 | C=CC(=O)N(c1ccc(N(C)C)c(C)c1)C(C(=O)Nc1ccccc1Br)c1cccnc1 (stereo unspecified) | 0.86 | 0.79 | 0 | 2.84 | 8.13 | – | –
18 | C=CC(=O)N(c1ccc(C(C)(C)C)cc1)C(C(=O)Nc1ccc(OC)nc1)c1cccnc1 (stereo unspecified) | 1 | 1 | 0 | 1.08 | 13.4 | 0 | –
19 | Cc1cnc(CC(=O)Nc2cccnc2)o1 | 0.99 | 1 | 0 | – | -9.91 | 0 | –
20 | Cc1ccncc1Cn1ccccc1=O | 1 | 1 | – | 3.62 | 7.02 | 6.5 | –
21 | C=CC(=O)N(c1ccc(C(C)(C)C)cc1)C(C(=O)NCCc1cccc(F)c1)c1cccnc1 (stereo unspecified) | 0.98 | 0.55 | 91.8 | 63.3 | 83.4 | 100 | 3.36
22 | Cc1cc(C(C)(C)C)ccc1OC[C@H](O)Cn1cnccc1=O (stereo in doubt) | 1.01 | 1 | – | -3.67 | 16.5 | 0 | –
23 | CC(C)[C@@H](C#N)NS(=O)(=O)c1ccc(CF)cc1 (stereo in doubt) | 1 | 1 | 1.55 | – | -14 | 22.1 | –
24 | Cc1ccncc1-c1nnc(-c2cccc(Cl)c2)o1 | 1 | 0.99 | – | 1.73 | 13.8 | 0.631 | –
25 | COc1cccc(N2CCN(C(=O)c3cc(=O)[nH]c4ccccc34)CC2)c1 | 0.99 | 0.95 | – | 78.5 | 90.8 | 83.3 | 19.7
26 | CCO[C@@H]1C[C@H]1C(=O)Nc1cnccc1C (stereo in doubt) | 1 | 1 | – | -4.13 | -3.45 | 0 | –
27 | C=CC(=O)N(c1ccc(C(C)(C)C)cc1)C(C(=O)NC1CC1)c1cccnc1 (stereo unspecified) | 1.01 | 1 | 8.67 | 25.4 | 33 | 33.3 | –

Row | SMILES | relative solubility at 20 uM | relative solubility at 100 uM | inhibition ([1]; 20.0 µM) [%] | inhibition ([2]; 20.0 µM) [%] | inhibition ([2]; 50.0 µM) [%] | inhibition ([1]; 50.0 µM) [%] | IC50 [1] [µM]
28 | CC(C(=O)O)c1ccc2c(c1)[nH]c1ccc(Cl)cc12 (stereo unspecified) | 1 | 0.98 | 0 | -0.548 | 3.97 | – | –
29 | O=C(Nc1ccccc1)Nc1cnc2ccc([N+](=O)[O-])cc2n1 | 0.86 | 0.84 | – | -15.3 | 9.06 | 0.772 | –
30 | Cc1cc(C)c(C)c(S(=O)(=O)N2CCN(C(=O)c3cc(=O)[nH]c4ccccc34)CC2)c1C | 0.75 | 0.65 | 81.7 | 84.4 | 92.9 | 88.1 | 3.75
31 | Cc1ccncc1NC(=O)C(C)CC1CC1 (stereo unspecified) | 1 | 1 | – | -2.37 | 2.12 | 0 | –
32 | O=C(c1cc(=O)[nH]c2ccccc12)N1CCN(S(=O)(=O)c2ccccc2)CC1 | 0.98 | 0.97 | – | 16.1 | 40.7 | 3.07 | –
33 | N#Cc1cccc(CNc2ccc(O)cc2)c1 | 1 | 1 | 19.8 | 9.73 | 2.32 | 22.7 | –
34 | Cc1ccncc1NC(=O)c1ccc(NC(=O)Nc2cccnc2)cc1 | 1 | 0.99 | 3.1 | – | -23 | 0 | –
35 | O=C(NCC1COc2ccccc2O1)c1cc(=O)[nH]c2ccc(F)cc12 (stereo unspecified) | 1 | 0.79 | – | 3.84 | 18.6 | 16.4 | –
36 | Cc1ccncc1-c1nc(-c2cccc(Cl)c2)no1 | 1 | 0.99 | – | 3.58 | 5.25 | 22.9 | –
37 | CS(=O)(=O)N1CCN(C(=O)CCl)CC1c1ccccc1 (stereo unspecified) | 1 | 1 | 87.5 | 64.6 | 69.5 | 95.9 | 3.31
38 | O=C(Cc1c[nH]c2ncccc12)NCc1ccc(Cl)cn1 | 1 | 1 | 0 | 1.55 | 4.16 | – | –
39 | CNC(=O)OC1CCN(Cc2ccccc2)CC1 | 0.99 | 1 | 0.824 | – | 17.6 | 0 | –
40 | CN(CC1COc2ccccc2O1)C(=O)c1cc(=O)[nH]c2ccc(F)cc12 (stereo unspecified) | 0.99 | 0.99 | – | -4.21 | 1.67 | 0 | –
41 | Cc1ccc(NC(=O)Cc2cccc(Cl)c2)cn1 | 0.99 | 1 | – | 0.36 | 3.35 | 0 | –
42 | O=C(CCl)N1CCCC(N(CC2CCCCC2)C2CCC(O)CC2)C1 (stereo unspecified) | 1 | 1 | – | -11.8 | 7.36 | 24.9 | –
43 | Cc1nc(CCn2c(C3CCC(=O)N3)nnc2N2CCOC(C)(C)C2)n[nH]1 (stereo unspecified) | 1 | 1 | – | -0.233 | 2.23 | 4.69 | –
44 | O=C(Nc1nc2ccc(F)cn2n1)C1CCOc2ccc(Cl)cc21 (stereo unspecified) | 1 | 0.99 | – | -28.5 | 7.58 | 0 | –
45 | O=C(c1cc(=O)[nH]c2ccccc12)N1CCN(Cc2ccccc2)CC1 | 0.99 | 1 | – | 74.5 | 87.8 | 82.4 | 18.8
46 | Cc1ccnc2[nH]c(CC3CCN(C(=O)CCl)CC3)nc12 | 1 | 1 | – | 5.18 | 18.1 | 100 | 29.7
47 | O=C(Nc1ccccc1)c1cc(Cl)ccc1O | 1 | 0.89 | 0 | 3.75 | 8.41 | – | –
48 | Cc1ccccc1C(C(=O)NCC(O)Cn1ccnn1)c1ccccc1 (stereo unspecified) | 1 | 1.01 | 0 | 0.424 | 4.24 | – | –
49 | O=C(CCl)N1CCN(Cc2cccc(Cl)c2)C[C@@H]1Cc1ccccc1 (stereo in doubt) | 0.97 | 0.92 | – | 22.5 | 45.2 | 66.6 | 18.9
50 | C=CC(=O)N1CCCC(N(CC2CCCCC2)C2CCC(O)CC2)C1 (stereo unspecified) | 1 | 1 | – | -4.47 | -0.824 | 0 | –
51 | O=C(CCl)N1CCN(Cc2cc(O)ccc2O)CC1 | 0.99 | 0.99 | 63.9 | 57.4 | 74.5 | 89.9 | 9.28
52 | C=CC(=O)N(c1ccc(C(C)OC)cc1)C(C(=O)Nc1c(C)cccc1CC)c1cccnc1 (stereo unspecified) | 0.96 | 0.87 | 0 | 5.9 | 3.94 | – | –
53 | C=CC(=O)N(c1ccc2ncsc2c1)C(C(=O)Nc1ccc(OC)cc1C)c1cccnc1 (stereo unspecified) | 0.94 | 0.92 | 0 | 3.21 | 11.3 | – | –
54 | CCC(NC(=O)C(C)n1cncn1)c1ccccc1OCC(=O)N1CCCC1 (stereo unspecified) | 1 | 0.99 | 0 | -0.907 | 0.701 | 0 | –
